Consider five compounds from patent US8541457B2, “Aminothiazole derivatives as human stearoyl-CoA desaturase inhibitors” (Xenon Pharmaceuticals Inc., priority 2005, dated 2013).

For orientation: melting point means the temperature, or range, at which the solid turns liquid. Turning to `Cc1nc(NC(=O)c2cccnc2)sc1C(=O)NCc1ccccc1` [Example 2.27, N-(5-Benzylcarbamoyl-4-methylthiazol-2-yl)nicotinamide], the melting point is 224 to 226 °C.

Compound `COc1ccc(C(=O)Nc2nc(C)c(C(=O)NCc3ccccc3)s2)cc1` [Example 2.33, 2-(4-Methoxybenzoylamino)-4-methylthiazole-5-carboxylic Acid Benzylamide] showed a melting point of 203 to 204 °C.

Compound `Cc1nc(NC(=O)c2ccccc2)sc1C(=O)NCc1ccccc1F` [Example 7.3, 2-Benzoylamino-4-methylthiazole-5-carboxylic Acid 2-Fluorobenzylamide] showed a melting point of 180 to 183 °C.

Take `Cc1nc(NC(=O)C2CC2)sc1C(=O)NCc1ccccc1` [Example 2.2, 2-(Cyclopropanecarbonylamino)-4-methylthiazole-5-carboxylic Acid Benzylamide]: the melting point fell in the range of 241 to 243 °C.

`Cc1nc(NC(=O)c2cc[nH]c(=O)c2)sc1C(=O)NCc1ccccc1` [Example 14, N-Benzyl-4-methyl-2-(2-oxo-1,2-dihydropyridine-4-carboxamido)thiazole-5-carboxamide] displayed a melting point of 290 to 292 °C.
